Where two headings read alike, the source gives them in different places.
Tests used:
[1] = molecular target: T1, αvβ6 integrin (A375Pβ6 cells) (Homo sapiens, UniProt P06756+P18564); test: Level of binding of biotinylated peptides to A375Pβ6 cells by flow cytometry; conditions: mean of up to four experiments; for A) Affinity: mean activity relative to biotinylated A20FMDV2 (100 nM): binding to A375Pβ6 at 100 nM, flow cytometry, commercial biotinylated A20FMDV2 = 1.00
T1 construct: expressed in transfected cells; host or cells: A375Pβ6 (transduced A375P melanoma cells; control line A375Ppuro)
T1 sequence (P06756 31-889 limits assumed, stated change not applied): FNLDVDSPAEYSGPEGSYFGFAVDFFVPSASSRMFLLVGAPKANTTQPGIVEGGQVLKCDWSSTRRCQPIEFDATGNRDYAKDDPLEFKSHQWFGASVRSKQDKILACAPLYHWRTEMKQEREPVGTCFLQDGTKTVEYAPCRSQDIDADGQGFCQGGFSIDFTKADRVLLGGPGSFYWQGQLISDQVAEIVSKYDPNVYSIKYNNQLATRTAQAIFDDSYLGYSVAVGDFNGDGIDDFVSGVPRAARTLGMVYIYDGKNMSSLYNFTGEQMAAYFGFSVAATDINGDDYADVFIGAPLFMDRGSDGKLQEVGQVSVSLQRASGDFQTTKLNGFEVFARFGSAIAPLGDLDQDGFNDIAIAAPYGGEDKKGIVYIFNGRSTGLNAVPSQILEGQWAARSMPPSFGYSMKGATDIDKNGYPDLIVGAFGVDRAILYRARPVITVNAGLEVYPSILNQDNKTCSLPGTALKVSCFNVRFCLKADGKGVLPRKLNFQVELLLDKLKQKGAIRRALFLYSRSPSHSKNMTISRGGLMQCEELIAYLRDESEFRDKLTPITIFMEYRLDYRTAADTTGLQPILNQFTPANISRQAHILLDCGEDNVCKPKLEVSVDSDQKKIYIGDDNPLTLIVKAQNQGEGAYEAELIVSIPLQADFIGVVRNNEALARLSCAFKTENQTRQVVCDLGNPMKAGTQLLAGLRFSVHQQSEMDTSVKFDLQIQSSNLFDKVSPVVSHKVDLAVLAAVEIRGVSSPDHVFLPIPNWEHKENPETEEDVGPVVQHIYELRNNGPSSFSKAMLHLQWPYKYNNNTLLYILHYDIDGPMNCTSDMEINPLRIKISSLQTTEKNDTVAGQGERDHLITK
T1 sequence (P06756 891-1048 limits assumed, stated change not applied): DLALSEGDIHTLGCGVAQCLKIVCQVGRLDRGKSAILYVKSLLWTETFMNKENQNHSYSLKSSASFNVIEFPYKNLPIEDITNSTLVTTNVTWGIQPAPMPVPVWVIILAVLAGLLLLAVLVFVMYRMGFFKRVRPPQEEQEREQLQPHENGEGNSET
T1 sequence (P18564 22-788, stated change not applied): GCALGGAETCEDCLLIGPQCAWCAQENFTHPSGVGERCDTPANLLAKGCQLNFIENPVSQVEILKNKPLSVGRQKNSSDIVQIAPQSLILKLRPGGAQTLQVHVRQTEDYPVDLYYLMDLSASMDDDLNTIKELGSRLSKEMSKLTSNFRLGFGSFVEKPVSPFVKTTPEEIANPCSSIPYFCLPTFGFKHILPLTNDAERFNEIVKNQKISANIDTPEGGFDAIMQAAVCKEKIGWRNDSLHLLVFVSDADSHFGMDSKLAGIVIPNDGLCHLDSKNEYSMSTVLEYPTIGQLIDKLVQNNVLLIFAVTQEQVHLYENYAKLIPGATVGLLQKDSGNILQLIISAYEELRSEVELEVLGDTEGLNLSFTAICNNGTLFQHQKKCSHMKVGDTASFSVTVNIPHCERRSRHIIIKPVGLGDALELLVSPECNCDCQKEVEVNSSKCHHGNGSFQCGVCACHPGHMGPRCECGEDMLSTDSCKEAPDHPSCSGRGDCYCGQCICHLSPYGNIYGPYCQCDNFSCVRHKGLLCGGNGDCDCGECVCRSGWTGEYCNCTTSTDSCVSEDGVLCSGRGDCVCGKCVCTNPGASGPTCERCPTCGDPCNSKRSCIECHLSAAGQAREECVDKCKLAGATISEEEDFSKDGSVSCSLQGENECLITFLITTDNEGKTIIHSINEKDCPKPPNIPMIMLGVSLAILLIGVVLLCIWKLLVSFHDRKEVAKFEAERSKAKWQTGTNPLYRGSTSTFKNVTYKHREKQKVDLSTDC

A375Pβ6 cells = type: cell-based
Experimental: Cells were trypsinised and resuspended into DMEM (serum-free media) to prepare a cell suspension of 4×10^6 cells/ml. From this point on everything was kept on ice. 50 μl of cell suspension were aliquoted into each flow tube. Peptides were diluted in ice-cold serum-free media to 200 nM giving the final concentration of 100 nM when 50 μl was added to the cell samples. The peptides were left on ice for 15 minutes then washed twice with flow media and centrifuged for 3 minutes at 1200 rpm in between each wash step. Mouse anti-biotin (50 μl at 1:200) was added to each sample for 15 minutes, then wash steps were repeated. Apart from the 0 time point, each of the time point samples were put in the incubator at 37° C. and at 15, 30 and 45 minutes the cells were fixed in 4% formaldehyde in PBS for 10 minutes, washed once in PBS and 0.1% Triton X-100 detergent added for 5 minutes, before washing in PBS again. Goat anti-mouse IgG conjugated to AlexaFLUOR 488 (1:250) was added (50 μl) to each sample and left for 15 minutes on ice in the dark. Samples were washed as above and resuspended to 30 μl. Samples were examined on an Imagestream X Mark II (Amnis, Merck) Imagestream images were assessed for internalisation compared with the 0 minute samples using on board software.
Internalisation Assay Method—Flow Cytometry
Cells were prepared as above except that no detergent was added prior to detecting the biotin with antibodies. Samples were analysed on a FACScalibur (Bekton-Dickinson) cytometer.
To assess ability to be internalized by cells at 37° C. (and thus potential vectors for therapies) we used Imagestream® cytometry and flow cytometry. Imagestream® takes a fluorescence image of each cell (FIG. 2C) enabling image analysis of the fluorescence on the surface versus the intracellular compartment. Histograms in FIG. 2C plot internalization relative to the 0 minute time point. For flow cytometry we monitored the loss of surface expression as the peptides were internalized.

[2] = test system: A375Pβ6 (αvβ6) and A375Puro (control) xenografts; test: Biodistribution of 111In-DTPA labelled peptides in tumour-bearing mice; type: in vivo, female CD1 Nu/Nu mice; conditions: 111In-DTPA peptide iv, mean ± SEM
Experimental: 2×10^6 cells in 100 μl were injected subcutaneously into the shoulders of female CD1 Nu/Nu mice. Tumours were grown subcutaneously on the left (A375Puro) and on the right (A375136) shoulder over two weeks. Once tumours had grown to approximately 5 mm diameter peptides were radiolabelled with Indium-111, and analysed by Radio-HPLC to determine labelling efficiency. The labelled peptides were diluted in sterile PBS/BSA and were dosed to give 0.3MBq per animal. Mice were then intravenously (tail-vein) injected with the radiolabelled peptide and are culled after 1 hour. Blood, organs and tumours were removed, weighed and residual activity was measured on a gamma counter (LKB Compugamma) the next day. Data were expressed as % Injected Dose/g tissue (% ID/g).
Immunocompromised mice (n=3-5) bearing A375Ppuro and A37546 tumours on opposite shoulders were given intravenous (iv) injections of […] of radiolabelled peptides 22-26 then killed 1 h later. Major organs and blood were collected immediately, weighed, and radioactivity determined. The data in Table 3 show the behaviour of the five DTPA-conjugated peptides tested; data are expressed as mean % injected dose/g tissue.

Substance	A) Affinity: mean activity relative to biotinylated A20FMDV2 (100 nM) [1]	B) Internalisation: mean % internalisation at 45 min relative to biotinylated A20FMDV2 (100 nM) (A375Pβ6 cells)	Relative Activity (A × B) (A375Pβ6 cells)	further results
AcHN-NK(Biotin)VPNLRGDLQVLAQKVART-NH2 [Peptide 18]	1.25 ± 0.26	0.87 ± 0.12	1.09	Relative Activity value higher than the control peptide (A375Pβ6 cells): 9%
AcHN-NK(Biotin)VPNLRGDLQVLAQKVART-OH [Peptide 16]	–	1.05 ± 0.24	1.55	Relative Activity value higher than the control peptide (A375Pβ6 cells): 55%
DTPA-GNK(Biotin)VPNLRGDLQVLAQKVART-OH [Peptide 23]	1.28 ± 0.23	–	–	Relative Activity (A × B) (A375Pβ6 cells; binding affinity value multiplied by amount internalized, commercial biotinylated A20FMDV2 = 1.00): 1.24; B) Internalisation: mean % internalisation at 45 min relative to biotinylated A20FMDV2 (100 nM) (A375Pβ6 cells; flow cytometry, 100 nM, 45 min at 37° C., commercial biotinylated A20FMDV2 = 1.00): 0.97 ± 0.11; Bio-distribution, Blood ([2]; 1 h): 0.5 ± 0.16 % ID/g; Bio-distribution, Heart ([2]; 1 h): 0.6 ± 0.16 % ID/g; Bio-distribution, Intestines ([2]; 1 h): 3.8 ± 0.98 % ID/g; Bio-distribution, Liver ([2]; 1 h): 0.4 ± 0.06 % ID/g; Bio-distribution, Lung ([2]; 1 h): 4.4 ± 0.72 % ID/g; Bio-distribution, Muscle ([2]; 1 h): 0.8 ± 0.07 % ID/g; Bio-distribution, Pancreas ([2]; 1 h): 0.5 ± 0.13 % ID/g; Bio-distribution, Spleen ([2]; 1 h): 0.2 ± 0.07 % ID/g; Bio-distribution, Stomach ([2]; 1 h): 6.4 ± 2.33 % ID/g; Bio-distribution, Tail ([2]; 1 h): 4.3 ± 2.85 % ID/g; Bio-distribution, Tumour (Control) ([2]; A375Puro xenograft, mice culled after 1 h): 0.5 ± 0.15 % ID/g; Bio-distribution, Tumour (αvβ6) ([2]; A375Pβ6 xenograft, mice culled after 1 h): 3.7 ± 0.29 % ID/g
H2N-NK (Biotin) VPNLRGDLQV[norvaline]AQKVART-OH [Peptide 8]	0.77 ± 0.52	1.09 ± 0.17	0.84	–
H2N-NK (Biotin) VPNLRGDLQV[tert-butyl-alanine]AQKVART-OH [Peptide 11]	0.60 ± 0.23	1.03 ± 0.14	0.62	–
H2N-NK(Biotin)VPNLRGDLQVLAQ-N-MeKVART-OH [Peptide 6]	0.37 ± 0.12	0.89 ± 0.32	0.32	–
H2N-NK(Biotin)VPNLRGDLQVLAQKVART-NH2 [Peptide 17]	–	1.07 ± 0.40	1.31	Relative Activity value higher than the control peptide (A375Pβ6 cells): 31%
H2N-NK(Biotin)VPNLRGDLQVLAQKVART-OH [Peptide 1]	1.11 ± 0.15	0.84 ± 0.14	0.93	–
H2N-NK(Biotin)VPNLRGDLQVLAQKVARt-OH [Peptide 20]	0.53 ± 0.44	0.99 ± 0.25	0.53	–
H2N-NK(Biotin)VPNLRGDLQVLAQ[diaminopropionic acid]VART-OH [Peptide 5]	0.79 ± 0.14	0.96 ± 0.31	0.76	–
H2N-NK(Biotin)VPNLRGDLQVLAQ[ornithine]VART-OH [Peptide 3]	1.12 ± 0.16	0.86 ± 0.29	0.96	–
H2N-NK(Biotin)VPNLRGDLQVLAQkVART-OH [Peptide 2]	1.11 ± 0.15	0.78 ± 0.15	0.87	–
H2N-NK(Biotin)VPNLRGDLQV[2-amino-3-ethylpentanoic acid]AQKVART-OH [Peptide 13]	0.70 ± 0.33	0.52 ± 0.23	0.37	–
H2N-NK(Biotin)VPNLRGDLQV[adamantylglycine]AQKVART-OH [Peptide 15]	0.51 ± 0.28	1.07 ± 0.18	0.55	–
H2N-NK(Biotin)VPNLRGDLQV[allylglycine]AQKVART-OH [Peptide 10]	0.58 ± 0.25	0.82 ± 0.25	0.48	–
H2N-NK(Biotin)VPNLRGDLQV[aminoisobutyric acid]AQKVART-OH [Peptide 7]	1.07 ± 0.37	1.11 ± 0.3	1.19	–
H2N-NK(Biotin)VPNLRGDLQV[cyclohexylalanine]AQKVART-OH [Peptide 14]	0.62 ± 0.06	1.01 ± 0.32	0.62	–
H2N-NK(Biotin)VPNLRGDLQV[homoleucine]AQKVART-OH [Peptide 12]	0.45 ± 0.22	0.66 ± 0.14	0.27	–
H2N-NK(Biotin)VPNLRGDLQV[norleucine]AQKVART-OH [Peptide 9]	1.16 ± 0.29	1.15 ± 0.04	1.33	–
H2N-nK(Biotin)VPNLRGDLQVLAQKVART-OH [Peptide 19]	–	0.89 ± 0.12	–	Average binding activity higher than the parent (commercially obtained biotinylated-A20FMDV2) ([1]; A375Pβ6, 100 nM): 43%; Relative Activity value higher than the control peptide (A375Pβ6 cells): 27%
H2N-nK(Biotin)VPNLRGDLQVLAQKVARt-OH [Peptide 21]	–	0.87 ± 0.27	–	Relative Activity value higher than the control peptide (A375Pβ6 cells): 37%
N-NK(Biotin)VPNLRGDLQVLAQ[diaminobutyric acid]VART-OH [Peptide 4]	1.00 ± 0.07	0.86 ± 0.29	0.86	–
